Results published in publication PMC12586598, “A novel long-acting C5a-blocking cyclic peptide prevents sepsis-induced organ dysfunction via effective blockade of the inflammatory cascade” (Signal Transduction and Targeted Therapy, 2025).
Where a SMILES comes first, the peptide text is derived from it.

Tests used:
CLP-induced septic mice = assay: Inflammatory factors and chemokines in PLF, Luminex, CLP mice; assay type: in vivo, mouse
Procedure: Twenty-four hours later, whole blood and PLF were collected under anesthesia. The plasma and PLF supernatants were further isolated via centrifugation (3000 × g, 10 min, 4 °C) and subjected to inflammatory factor and chemokine profiling via the Luminex® multiplex […] Biotechnologies, Shanghai, China). The percent inhibition was calculated relative to that of the sham group (set as 0%).

in vitro = conditions: C57BL/6, mouse, plasma
Text: The peptides in the plasma were extracted with 15% TFA and quantified via reversed-phase high-performance liquid chromatography (HPLC) (Agilent 1260, USA).

CLP model mice = assay: cfDNA and neutrophil elastase in plasma of CLP mice; assay type: in vivo, mouse; conditions: 100 μg/20 g, 24 h after CLP surgery, relative to Sham set as 0%
Procedure: To determine the levels of cfDNA and elastase in plasma, blood samples were collected, and plasma was prepared 24 h after CLP surgery. cfDNA was extracted via the VAHTS Serum/Plasma Circulating DNA Kit (Vazyme, Nanjing) and quantified via qPCR. Elastase was quantified via an NE ELISA Kit (Cusabio, Wuhan).

PMNs = assay: Neutrophil phagocytosis (BioParticles and live bacteria), flow cytometry; assay type: cell-based, human; conditions: 6 h hC5a stimulation; E. coli and S. aureus BioParticles and live bacteria
Procedure: To assess the phagocytic function of neutrophils, PMNs were stimulated with hC5a or hC5a/Cp1 complexes for 6 h, followed by incubation with 20 μL of Red E. coli BioParticles™ or Green S. aureus BioParticles™ (Invitrogen, USA) at 37 °C for 0.5 h in the dark.[44] After being washed with precooled PBS and centrifuged (40 × g, 5 min), the samples were subjected to flow cytometric quantification for phagocytosis analysis. For the live bacterial phagocytosis assay, 2 × 10^5 PMNs were prestimulated with 100 ng of hC5a or hC5a/Cp1 complexes for 6 h. The PMNs were incubated with DMAO-labeled E. coli (ATCC 25922) or S. aureus (ATCC 29213) at an MOI (multiplicity of infection) of 10 for 0.5 h at 37 °C in the dark, followed by pretreatment with precooled gentamicin (50 μg/mL). The intracellular fluorescence intensity of PMNs was quantified via flow cytometry.

[1] = biological target: T1, Cy5-labeled mouse C5a protein (Mus musculus, UniProt P06684); assay: Competitive binding assay by FCM (Cy5-C5a on mouse neutrophils); assay type: cell-based; conditions: high (1 μg/mL) or low (10 ng/mL) concentrations
T1 construct: 10 ng of Cy5-labeled mouse C5a protein (MCE, Shanghai, China); purchased MCE; host or cells: mouse peripheral blood neutrophils (endogenous receptor)
T1 sequence (P06684 679-755): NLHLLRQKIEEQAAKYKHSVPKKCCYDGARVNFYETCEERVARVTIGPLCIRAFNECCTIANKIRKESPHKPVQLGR
Procedure: For the validation of peptide affinity for C5a. Peripheral blood neutrophils from the mice were isolated via density gradient centrifugation (Solarbio P9201, Beijing, China). A total of 10 ng of Cy5-labeled mouse C5a protein (MCE, Shanghai, China) was preincubated with linear peptides or cyclic peptides (10 or 100 ng) at room temperature for 0.5 h. Subsequently, 2×10^5 mouse neutrophils were incubated with Cy5-labeled mouse C5a or Cy5-labeled mouse C5a/peptide complexes at 4 °C for 0.5 h in the dark, followed by centrifugation, washing with PBS and flow cytometric analysis (Sony ID7000™, Japan).

C5a-C5aR1 = biological target: T2, C5a-C5aR1 (Homo sapiens, UniProt P01031); assay: Validation of Cp1-specific blockade of C5a-C5aR1 by flow cytometry on PMNs; assay type: cell-based; conditions: resting and TNF-α activated PMNs, Cy5-C5a
T2 construct: 10 ng of Cy5-labeled human C5a (MCE, Shanghai, China); purchased MCE; host or cells: PMNs from Oribiotech Co., Ltd. (endogenous receptor)
T2 sequence (P01031 678-751): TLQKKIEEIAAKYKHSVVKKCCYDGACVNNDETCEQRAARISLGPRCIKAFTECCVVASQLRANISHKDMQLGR
Procedure: To validate the Cp1-specific blockade of C5a-C5aR1. PMNs isolated by flow cytometric sorting from Oribiotech Co., Ltd. (Shanghai, China) were preincubated with C5aR1-antibody (5 μg), C5aR2-antibody (5 μg), Cp1 (10 μg), Cp1 (10 μg)+C5aR1-antibody (5 μg) or Cp1 (10 μg)+C5aR2-antibody (5 μg) at room temperature for 0.5 h, followed by incubation with 10 ng of Cy5-labeled human C5a (MCE, Shanghai, China) at 4 °C for 0.5 h in the dark. The samples were subsequently centrifuged, washed with PBS and detected via flow cytometry. PMNs were stimulated with 10 ng/mL TNF-α for 12 hours to perform competitive binding assays under activated conditions.

mouse C5a = biological target: T3, mouse C5a (Mus musculus, UniProt P06684); assay: SPR binding affinity assay, immobilized mouse C5a; parameters: immobilization of mouse C5a (ACROBiosystems, Beijing, China); purchased ACROBiosystems
T3 sequence (P06684 679-755 limits assumed): T1 sequence (P06684 679-755)
Procedure: (§1) Surface plasmon resonance (SPR) analysis was conducted using Biacore 2000 system (GE Healthcare, Germany) at 37°C in running buffer (20 mM Tris-HCl, pH 7.4, 150 mM NaCl, 5 mM KCl, 1 mM MgCl₂, 1 mM CaCl₂). The CM5 sensor chips (GE Healthcare) were activated with NHS/EDC, followed by immobilization of mouse C5a (ACROBiosystems, Beijing, China), human C5a (ACROBiosystems, Beijing, China), mouse C5 (ACROBiosystems, Beijing, China) or mouse C5a-desArg (MCE, Shanghai, China). The peptide-protein interactions were characterized using a concentration-gradient approach (low to high) with a continuous flow rate of 30 μL/min (150 s injection duration). Between analyte concentrations, the sensor surface was regenerated with 10 mM glycine-HCl (pH 2.0; 5 min treatment). Binding and dissociation constants were obtained by globally fitting the data to a 1:1 Langmuir binding model using a Biacore Insight evaluation software (Cytiva, USA).

mouse C5 = biological target: T4, mouse C5 (Mus musculus, UniProt P06684); assay: SPR binding affinity assay, immobilized mouse C5
T4 construct: purchased ACROBiosystems
T4 sequence (P06684 19-1680): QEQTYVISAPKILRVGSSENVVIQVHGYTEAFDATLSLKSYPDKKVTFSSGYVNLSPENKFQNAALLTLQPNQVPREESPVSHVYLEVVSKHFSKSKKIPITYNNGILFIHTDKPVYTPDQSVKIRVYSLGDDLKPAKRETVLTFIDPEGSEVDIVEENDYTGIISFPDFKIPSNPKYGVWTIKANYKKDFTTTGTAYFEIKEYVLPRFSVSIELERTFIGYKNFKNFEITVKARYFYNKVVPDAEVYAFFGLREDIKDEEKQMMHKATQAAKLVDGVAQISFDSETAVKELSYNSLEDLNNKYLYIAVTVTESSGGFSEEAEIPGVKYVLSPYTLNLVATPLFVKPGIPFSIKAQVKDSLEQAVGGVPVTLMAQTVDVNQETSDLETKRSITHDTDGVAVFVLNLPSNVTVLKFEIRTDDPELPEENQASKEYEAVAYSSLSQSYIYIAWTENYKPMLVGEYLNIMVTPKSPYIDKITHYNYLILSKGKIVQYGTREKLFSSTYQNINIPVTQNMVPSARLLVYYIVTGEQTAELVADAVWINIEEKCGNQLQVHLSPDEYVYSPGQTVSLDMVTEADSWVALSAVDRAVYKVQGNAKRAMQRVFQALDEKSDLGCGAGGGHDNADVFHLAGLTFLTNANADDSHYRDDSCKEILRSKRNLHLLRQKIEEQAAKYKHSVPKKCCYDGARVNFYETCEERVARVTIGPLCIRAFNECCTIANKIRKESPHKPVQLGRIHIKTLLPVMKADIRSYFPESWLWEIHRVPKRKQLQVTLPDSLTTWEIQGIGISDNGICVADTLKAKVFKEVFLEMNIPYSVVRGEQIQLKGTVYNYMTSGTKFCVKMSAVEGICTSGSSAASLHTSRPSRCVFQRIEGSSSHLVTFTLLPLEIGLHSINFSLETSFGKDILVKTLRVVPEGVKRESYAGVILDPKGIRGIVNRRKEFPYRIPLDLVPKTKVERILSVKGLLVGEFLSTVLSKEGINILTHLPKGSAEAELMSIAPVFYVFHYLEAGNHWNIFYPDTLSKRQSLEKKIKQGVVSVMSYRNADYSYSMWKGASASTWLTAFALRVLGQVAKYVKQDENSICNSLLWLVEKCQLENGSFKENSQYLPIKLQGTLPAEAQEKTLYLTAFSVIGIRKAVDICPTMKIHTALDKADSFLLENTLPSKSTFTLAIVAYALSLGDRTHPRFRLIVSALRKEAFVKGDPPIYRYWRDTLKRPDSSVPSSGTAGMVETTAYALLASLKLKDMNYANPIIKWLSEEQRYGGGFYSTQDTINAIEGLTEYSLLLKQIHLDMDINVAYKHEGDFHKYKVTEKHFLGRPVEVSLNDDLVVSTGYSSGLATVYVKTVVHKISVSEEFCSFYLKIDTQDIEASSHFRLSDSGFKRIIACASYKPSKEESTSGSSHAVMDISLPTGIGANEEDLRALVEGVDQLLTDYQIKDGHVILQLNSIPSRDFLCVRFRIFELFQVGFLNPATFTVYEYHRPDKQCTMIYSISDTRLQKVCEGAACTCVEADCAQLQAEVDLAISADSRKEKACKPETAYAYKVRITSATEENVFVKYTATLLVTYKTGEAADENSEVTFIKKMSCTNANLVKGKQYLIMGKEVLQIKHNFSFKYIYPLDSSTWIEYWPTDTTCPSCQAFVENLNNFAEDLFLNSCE
Procedure: as §1

[2] = 100 μg/20 g, 24 h after CLP, relative to Sham set as 0%

SMILES: CSCC[C@@H]1NC(=O)[C@@H]2CCCN2C(=O)[C@H](CCSC)NC(=O)[C@H](CO)NC(=O)[C@H](Cc2c[nH]cn2)NC(=O)CNC(=O)[C@H](CO)NC(=O)[C@H](Cc2ccccc2)NC(=O)[C@H](CCCNC(=N)N)NC(=O)[C@H](CCC(=O)O)NC(=O)[C@H](Cc2ccccc2)NC(=O)[C@H](C(C)C)NC1=O [Cp1] (cyclo(HSMPMVFERFSG))
- decrease of CCL2 in PLF (CLP-induced septic mice; [2]): 96%
- decrease of CCL3 in PLF (CLP-induced septic mice; [2]): 87%
- decrease of CCL5 in PLF (CLP-induced septic mice; [2]): 89%
- decrease of CCL7 in PLF (CLP-induced septic mice; [2]): 69%
- decrease of CCL12 in PLF (CLP-induced septic mice; [2]): 90%
- decrease of CXCL1 in PLF (CLP-induced septic mice; [2]): 75%
- decrease of CXCL5 in PLF (CLP-induced septic mice; [2]): 94%
- decrease of IL-1β in PLF (CLP-induced septic mice; [2]): 62%
- decrease of IL-6 in PLF (CLP-induced septic mice; [2]): 73%
- decrease of TNF-α in PLF (CLP-induced septic mice; [2]): 77%
- expression of inflammatory factors and chemokines in PLF, high dose (CLP-induced septic mice; 300 μg of Cp1): effectively suppressed
- attenuation of IL-6 in PLF (CLP-induced septic mice; CLP-induced septic mice, first of four 'corresponding' values): 3.7 fold
- attenuation of CXCL1 in PLF (CLP-induced septic mice; CLP-induced septic mice, fourth of four 'corresponding' values): 4.3 fold
- attenuation of CCL2 in PLF (CLP-induced septic mice; CLP-induced septic mice, third of four 'corresponding' values): 25 fold
- remaining at 24 h (in vitro): > 95%
- decrease of plasma neutrophil elastase (NE) (CLP model mice; ELISA): 100%
- decrease of plasma cfDNA (CLP model mice; qPCR): 68%
- effect on C5a-induced phagocytic impairment in PMNs (PMNs): effectively mitigated C5a-induced phagocytic impairment
- blockade of Cy5-C5a binding to mouse neutrophils [1]: validated the blocking efficacy
- specificity of blocking the C5a-C5aR1 axis (C5a-C5aR1): selective blockade of the C5a‒C5aR1 interaction
- kon (mouse C5a; pH 7.4, read-out: Ka vs mC5a (SPR)): 63800 M⁻¹ s⁻¹
- koff (mouse C5a; read-out: Kd (dissociation rate) vs mC5a (SPR)): 0.359 s⁻¹
- kon (mouse C5; pH 7.4, read-out: Ka vs mC5 (SPR)): 105000 M⁻¹ s⁻¹
- koff (mouse C5; read-out: Kd (dissociation rate) vs mC5 (SPR)): 0.0745 s⁻¹
